From PubChem BioAssay AID2060897 (Molecular Pharmacology Branch, DTP, NCI, 2025)

Tested on: 966289-007-R4-J1-PDC complex spheroid viability
Experiment: Anticancer human tumor 966289-007-R4-J1-PDC patient-derived pancreatic adenocarcinoma cell line growth inhibition [RAS]
Details: for IC50: curve of first compound; for viability, T/C: stronger effect = lower value
Summary of the method: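 Agents were tested in combination matrices in half-log decrements from a top concentration at or near clinical Cmax (10 microM if undetermined). Targets were multi-cell spheroids of tumour lines plus HUVEC and MSC stromal cells.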
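Also: spheroids exposed to agents for one week before readout.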
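For viability, T/C in this document: percent viability relative to DMSO vehicle control wells as 100%.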

Compound `CC(Nc1ccc2c(c1)OCCn1cc(N3C(=O)OCC3C(F)F)nc1-2)C(N)=O` (centres undefined) + C=CC(=O)N1CCN(c2nc(OCC3CCCN3C)nc3c(F)c(-c4nc(N)cc(C)c4C(F)(F)F)c(Cl)cc23)C(C)C1 has an IC50 (second compound 0.00316 µM) of over 10 µM, an IC50 (second compound 0.01 µM) of over 10 µM and an IC50 (second compound 0.0316 µM) of over 10 µM. The IC50 (second compound 0.1 µM) was over 10 µM, the IC50 (second compound 0.316 µM) was over 10 µM and the IC50 (second compound 1 µM) was over 10 µM. It also gave a viability, T/C (second compound 0.00316 µM, first compound 0.0316 µM) of 96.2%, a viability, T/C (second compound 0.00316 µM, first compound 0.1 µM) of 103% and a viability, T/C (second compound 0.00316 µM, first compound 0.316 µM) of 96.3%. It also gave a viability, T/C (second compound 0.00316 µM, first compound 1 µM) of 96.4%, a viability, T/C (second compound 0.00316 µM, first compound 3.16 µM) of 101% and a viability, T/C (second compound 0.00316 µM, first compound 10 µM) of 86.1%. It also gave a viability, T/C (second compound 0.01 µM, first compound 0.0316 µM) of 89.8%, a viability, T/C (second compound 0.01 µM, first compound 0.1 µM) of 112% and a viability, T/C (second compound 0.01 µM, first compound 0.316 µM) of 115%. The viability, T/C (second compound 0.01 µM, first compound 1 µM) was 102%, the viability, T/C (second compound 0.01 µM, first compound 3.16 µM) was 97.4% and the viability, T/C (second compound 0.01 µM, first compound 10 µM) was 86.9%. It also gave a viability, T/C (second compound 0.0316 µM, first compound 0.0316 µM) of 99.8%, a viability, T/C (second compound 0.0316 µM, first compound 0.1 µM) of 110% and a viability, T/C (second compound 0.0316 µM, first compound 0.316 µM) of 114%. The viability, T/C (second compound 0.0316 µM, first compound 1 µM) was 111%, the viability, T/C (second compound 0.0316 µM, first compound 3.16 µM) was 93.2% and the viability, T/C (second compound 0.0316 µM, first compound 10 µM) was 84.1%. It also gave a viability, T/C (second compound 0.1 µM, first compound 0.0316 µM) of 95.8%, a viability, T/C (second compound 0.1 µM, first compound 0.1 µM) of 111% and a viability, T/C (second compound 0.1 µM, first compound 0.316 µM) of 115%. It also gave a viability, T/C (second compound 0.1 µM, first compound 1 µM) of 115%, a viability, T/C (second compound 0.1 µM, first compound 3.16 µM) of 88.3% and a viability, T/C (second compound 0.1 µM, first compound 10 µM) of 93.3%. The viability, T/C (second compound 0.316 µM, first compound 0.0316 µM) was 96.6%, the viability, T/C (second compound 0.316 µM, first compound 0.1 µM) was 101% and the viability, T/C (second compound 0.316 µM, first compound 0.316 µM) was 117%. The viability, T/C (second compound 0.316 µM, first compound 1 µM) was 117%, the viability, T/C (second compound 0.316 µM, first compound 3.16 µM) was 103% and the viability, T/C (second compound 0.316 µM, first compound 10 µM) was 98.7%. For the same compound, the viability, T/C (second compound 1 µM, first compound 0.0316 µM) was 99.8%, the viability, T/C (second compound 1 µM, first compound 0.1 µM) was 110% and the viability, T/C (second compound 1 µM, first compound 0.316 µM) was 112%. For the same compound, the viability, T/C (second compound 1 µM, first compound 1 µM) was 87.1%, the viability, T/C (second compound 1 µM, first compound 3.16 µM) was 96.5% and the viability, T/C (second compound 1 µM, first compound 10 µM) was 83.2%.

Work on `CC(C)n1nc(-c2ccc3oc(N)nc3c2)c2c(N)ncnc21` + CCn1c(-c2cccnc2C(C)OC)c2c3cc(ccc31)N1CCOC(CC(NC(=O)C(C(C)C)N(C)C(=O)C3(F)CCN(C(=O)C#CC(C)(C)N(C)C)CC3)C(=O)N3CCCC(N3)C(=O)OCC(C)(C)C2)C1 yielded an IC50 (second compound 0.000949 µM) of 0.0248 µM, an IC50 (second compound 0.003 µM) of 0.0298 µM and an IC50 (second compound 0.00949 µM) of 0.0286 µM. It also gave an IC50 (second compound 0.03 µM) of 0.0317 µM, an IC50 (second compound 0.0949 µM) of 0.0298 µM and an IC50 (second compound 0.3 µM) of 0.0246 µM. The viability, T/C (second compound 0.000949 µM, first compound 0.000316 µM) was 101%, the viability, T/C (second compound 0.000949 µM, first compound 0.001 µM) was 88.1% and the viability, T/C (second compound 0.000949 µM, first compound 0.00316 µM) was 133%. It also gave a viability, T/C (second compound 0.000949 µM, first compound 0.01 µM) of 73.4%, a viability, T/C (second compound 0.000949 µM, first compound 0.0316 µM) of 45.9% and a viability, T/C (second compound 0.000949 µM, first compound 0.1 µM) of 14.3%. The viability, T/C (second compound 0.003 µM, first compound 0.000316 µM) was 82.1%, the viability, T/C (second compound 0.003 µM, first compound 0.001 µM) was 102% and the viability, T/C (second compound 0.003 µM, first compound 0.00316 µM) was 116%. It also gave a viability, T/C (second compound 0.003 µM, first compound 0.01 µM) of 75.9%, a viability, T/C (second compound 0.003 µM, first compound 0.0316 µM) of 50.8% and a viability, T/C (second compound 0.003 µM, first compound 0.1 µM) of 15.4%. For the same compound, the viability, T/C (second compound 0.00949 µM, first compound 0.000316 µM) was 67.1%, the viability, T/C (second compound 0.00949 µM, first compound 0.001 µM) was 111% and the viability, T/C (second compound 0.00949 µM, first compound 0.00316 µM) was 95.8%. The viability, T/C (second compound 0.00949 µM, first compound 0.01 µM) was 90.2%, the viability, T/C (second compound 0.00949 µM, first compound 0.0316 µM) was 46.1% and the viability, T/C (second compound 0.00949 µM, first compound 0.1 µM) was 20.3%. It also gave a viability, T/C (second compound 0.03 µM, first compound 0.000316 µM) of 56.9%, a viability, T/C (second compound 0.03 µM, first compound 0.001 µM) of 96.6% and a viability, T/C (second compound 0.03 µM, first compound 0.00316 µM) of 111%. It also gave a viability, T/C (second compound 0.03 µM, first compound 0.01 µM) of 91.8%, a viability, T/C (second compound 0.03 µM, first compound 0.0316 µM) of 50.1% and a viability, T/C (second compound 0.03 µM, first compound 0.1 µM) of 15%. For the same compound, the viability, T/C (second compound 0.0949 µM, first compound 0.000316 µM) was 58.4%, the viability, T/C (second compound 0.0949 µM, first compound 0.001 µM) was 96% and the viability, T/C (second compound 0.0949 µM, first compound 0.00316 µM) was 106%. For the same compound, the viability, T/C (second compound 0.0949 µM, first compound 0.01 µM) was 81.3%, the viability, T/C (second compound 0.0949 µM, first compound 0.0316 µM) was 48.4% and the viability, T/C (second compound 0.0949 µM, first compound 0.1 µM) was 18.2%. The viability, T/C (second compound 0.3 µM, first compound 0.000316 µM) was 115%, the viability, T/C (second compound 0.3 µM, first compound 0.001 µM) was 96.7% and the viability, T/C (second compound 0.3 µM, first compound 0.00316 µM) was 84%. The viability, T/C (second compound 0.3 µM, first compound 0.01 µM) was 89.7%, the viability, T/C (second compound 0.3 µM, first compound 0.0316 µM) was 38.6% and the viability, T/C (second compound 0.3 µM, first compound 0.1 µM) was 16.4%.

For `O=C(c1ccc(F)c(F)c1Nc1ccc(I)cc1F)N1CC(O)([C@@H]2CCCCN2)C1`, the viability, T/C (compound 0.00316 µM) was 90.5% [middle of 4 runs], the viability, T/C (compound 0.01 µM) was 97.5% [middle of 4 runs] and the viability, T/C (compound 0.0316 µM) was 90.4% [middle of 4 runs]. The viability, T/C (compound 0.1 µM) was 75.8% [middle of 4 runs] and the viability, T/C (compound 0.316 µM) was 68.9% [middle of 4 runs].
